Values quoted from earlier work, collected in US8071772B2, “Spirolactam bicyclic CGRP receptor antagonists” (Merck Sharp & Dohme Corp., priority 2005, dated 2011).
No end group written: not given here.

Legend:
facial blood flow [1] = details: marmoset; Doods et al. 2000
[2] = test system: diameter of the middle meningeal artery; details: rat, prior administration; Williamson et al. 1997
facial blood flow [3] = details: rat; Escott et al. 1995

Molecule | effect on increase in facial blood flow (facial blood flow [1]) | effect on increase of middle meningeal artery diameter [2] | effect on increased facial blood flow (facial blood flow [3])
NCCCC[C@H](NC(=O)[C@@H](Cc1cc(Br)c(O)c(Br)c1)NC(=O)N1CCC(N2Cc3ccccc3NC2=O)CC1)C(=O)N1CCN(c2ccncc2)CC1 [BIBN4096BS] | blocked | – | –
CGRP(8-37): a peptide CGRP antagonist; fragment of CGRP that lacks seven N-terminal amino acid residues (VTHRLAGLLSRSGGVVKNNFVPTNVGSKAF; ends and bridges not checked; UniProt P06881 90-119, looked up, fragment) | – | blocked | inhibited
